Measurements as given in PubChem BioAssay AID248 (DTP/NCI, 2004).
Where “and” joins values, the source holds several entries; their conditions need not be identical. Equal entries are not always repeated. Inconclusive results and toxic doses are left out. Rule as the data show it: active = T/C of 150% or more; inactive = T/C below 125%.

Tested on: L1210 leukemia ip in BDF1 mice, survival T/C
Assay: NCI In Vivo Anticancer Drug Screen. Data for tumor model L1210 Leukemia (intraperitoneal) in B6D2F1 (BDF1) mice
Settings: endpoint: mean survival time, higher = longer survival
In short: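 Each compound was tested against a transplantable tumor grown in mice. The endpoint was survival, with treated animals benchmarked against vehicle controls as a simple ratio.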

[1] = dose: 100.0 mg/kg/injection, schedule: Q01DX009 (ip), vehicle: Klucel (hydroxypropylcellulose) (HPC)
[2] = dose: 200.0 mg/kg/injection, schedule: Q01DX009 (ip), vehicle: Klucel (hydroxypropylcellulose) (HPC)
[3] = dose: 400.0 mg/kg/injection, schedule: Q01DX009 (ip), vehicle: Klucel (hydroxypropylcellulose) (HPC)
[4] = dose: 100.0 mg/kg/injection, schedule: Q01DX009 (ip), vehicle: saline with Tween-80
[5] = dose: 200.0 mg/kg/injection, schedule: Q01DX009 (ip), vehicle: saline with Tween-80
[6] = dose: 400.0 mg/kg/injection, schedule: Q01DX009 (ip), vehicle: saline with Tween-80
[7] = dose: 100.0 mg/kg/injection, schedule: Q01DX001 (ip), vehicle: carboxymethylcellulose (CMC)
[8] = dose: 200.0 mg/kg/injection, schedule: Q01DX001 (ip), vehicle: carboxymethylcellulose (CMC)
[9] = dose: 400.0 mg/kg/injection, schedule: Q01DX001 (ip), vehicle: carboxymethylcellulose (CMC)
[10] = dose: 100.0 mg/kg/injection, schedule: Q04DX002 (ip), vehicle: Klucel (hydroxypropylcellulose) (HPC)
[11] = dose: 200.0 mg/kg/injection, schedule: Q04DX002 (ip), vehicle: Klucel (hydroxypropylcellulose) (HPC)
[12] = dose: 400.0 mg/kg/injection, schedule: Q04DX002 (ip), vehicle: Klucel (hydroxypropylcellulose) (HPC)
[13] = dose: 50.0 mg/kg/injection, schedule: Q01DX009 (ip), vehicle: saline with Tween-80
[14] = dose: 100.0 mg/kg/injection, schedule: Q04DX003 (ip), vehicle: Klucel (hydroxypropylcellulose) (HPC)
[15] = dose: 200.0 mg/kg/injection, schedule: Q04DX003 (ip), vehicle: Klucel (hydroxypropylcellulose) (HPC)
[16] = dose: 400.0 mg/kg/injection, schedule: Q04DX003 (ip), vehicle: Klucel (hydroxypropylcellulose) (HPC)
[17] = dose: 100.0 mg/kg/injection, schedule: Q04DX003 (ip), vehicle: saline with Tween-80
[18] = dose: 200.0 mg/kg/injection, schedule: Q04DX003 (ip), vehicle: saline with Tween-80
[19] = dose: 400.0 mg/kg/injection, schedule: Q04DX003 (ip), vehicle: saline with Tween-80
[20] = dose: 100.0 mg/kg/injection, schedule: Q01DX001 (ip), vehicle: saline
[21] = dose: 200.0 mg/kg/injection, schedule: Q01DX001 (ip), vehicle: saline
[22] = dose: 400.0 mg/kg/injection, schedule: Q01DX001 (ip), vehicle: saline

Measured: T/C

CC(=O)OC1C(SC(C)(C)C)C=CC(SC(C)(C)C)N1C(C)=O (centres undefined)
inactive: [1] 103 % of control | [2] 103 % of control | [3] 95 % of control

O=C(O)CC(=O)c1ccc(I)cc1
inactive: dose: 75.0 mg/kg/injection, schedule: Q01DX001 (ip), vehicle: saline 94 % of control

COC1(c2cccs2)OC1(C)C (centres undefined)
inactive: [4] 110 % of control | [5] 94 % of control | [6] 100 % of control

CC(=O)c1cc(C)c(O)c(C)c1
inactive: dose: 50.0 mg/kg/injection, schedule: Q01DX001 (ip), vehicle: carboxymethylcellulose (CMC) 107 % of control | [7] 89 % of control | [8] 94 % of control | [9] 91 % of control

Cc1cccc(NC(=S)Nc2ccccc2)c1C
inactive: [10] 94 % of control | [11] 105 % of control | [12] 101 % of control

CCCCCCCCCCCCCCCCCC(=O)[O][Pb]([CH3])([CH3])[CH3]
inactive: dose: 25.0 mg/kg/injection, schedule: Q04DX002 (ip), vehicle: Klucel (hydroxypropylcellulose) (HPC) 97 % of control

NC(N)=N/N=C\CCC/C=N/N=C(N)N
inactive: dose: 15.0 mg/kg/injection, schedule: Q01DX Z (ip), vehicle: saline 98 % of control | dose: 30.0 mg/kg/injection, schedule: Q01DX Z (ip), vehicle: saline 97 % of control | dose: 60.0 mg/kg/injection, schedule: Q01DX Z (ip), vehicle: saline 105 % of control | dose: 60.0 mg/kg/injection, schedule: Q01DX Z (oral), vehicle: other 95 % of control | dose: 120.0 mg/kg/injection, schedule: Q01DX Z (ip), vehicle: saline 94 % of control | dose: 120.0 mg/kg/injection, schedule: Q01DX Z (oral), vehicle: other 100 % of control | dose: 240.0 mg/kg/injection, schedule: Q01DX Z (oral), vehicle: other 97 % of control | dose: 480.0 mg/kg/injection, schedule: Q01DX Z (oral), vehicle: other 102 % of control

COc1ccc(/C=N/NC(=O)C[n+]2ccccc2)cc1
inactive: [13] 91 % of control | [4] 112 % of control | [5] 88 % of control

CCN(CC)Cc1ccc(N)cc1
inactive: dose: 12.5 mg/kg/injection, schedule: Q01DX009 (ip), vehicle: saline 100 % of control | dose: 25.0 mg/kg/injection, schedule: Q01DX009 (ip), vehicle: saline 110 % of control

CCOc1ccccc1NC(=O)Nc1ccccc1C
inactive: [1] 102 % of control | [14] 101 % of control | [2] 100 % of control | [15] 105 % of control | [3] 94 % of control | [16] 103 % of control

COC(CC[P+](c1ccccc1)(c1ccccc1)c1ccccc1)(C(=O)c1ccccc1)c1ccccc1 (centres undefined)
inactive: dose: 15.0 mg/kg/injection, schedule: Q01DX001 (ip), vehicle: carboxymethylcellulose (CMC) 96 % of control | dose: 30.0 mg/kg/injection, schedule: Q01DX001 (ip), vehicle: carboxymethylcellulose (CMC) 90 % of control | dose: 60.0 mg/kg/injection, schedule: Q01DX001 (ip), vehicle: carboxymethylcellulose (CMC) 89 % of control

O=C(O)C1C2CCC1C2 (centres undefined)
inactive: [17] 98 % of control | [18] 101 % of control | [19] 95 % of control

O=C(O)CCCCc1ccccc1
inactive: [4] 96 % of control | [17] 100 % of control | [5] 100 % of control | [18] 91 % of control | [6] 92 % of control | [19] 94 % of control

CCC/C=C(C)/C=N\NC(=O)c1ccc[n+](C)c1
inactive: [13] 93 % of control | [4] 97 % of control

O=S(=O)(CCS(=O)(=O)c1ccccc1)c1ccccc1
inactive: dose: 50.0 mg/kg/injection, schedule: Q01DX009 (ip), vehicle: saline 94 % of control | [10] 92 % of control | dose: 150.0 mg/kg/injection, schedule: Q01DX009 (ip), vehicle: saline 97 % of control | [11] 92 % of control | [12] 88 % of control

Cc1cc(C)c(CC(=N)c2ccccc2)c(C)c1
inactive: dose: 100.0 mg/kg/injection, schedule: Q01DX001 (ip), vehicle: acetone 96 % of control | dose: 200.0 mg/kg/injection, schedule: Q01DX001 (ip), vehicle: acetone 94 % of control | dose: 400.0 mg/kg/injection, schedule: Q01DX001 (ip), vehicle: acetone 88 % of control

O=c1[nH]nc(S(=O)(=O)N2CCCC2)c(=O)[nH]1
inactive: [7] 98 % of control | [8] 98 % of control | [9] 93 % of control

COc1cc(C)c2ccccc2n1
inactive: dose: 100.0 mg/kg/injection, schedule: Q01DX001 (ip), vehicle: saline with Tween-80 100 % of control | [20] 104 % of control | dose: 200.0 mg/kg/injection, schedule: Q01DX001 (ip), vehicle: saline with Tween-80 102 % of control | [21] 103 % of control | dose: 400.0 mg/kg/injection, schedule: Q01DX001 (ip), vehicle: saline with Tween-80 94 % of control | [22] 98 % of control

NC(=O)C1OC(n2cnc3c(N)ncnc32)C(O)C1O (centres undefined)
inactive: dose: 0.09 mg/kg/injection, schedule: Q01DX009 (ip), vehicle: saline 101 % of control | dose: 0.19 mg/kg/injection, schedule: Q01DX005 (ip), vehicle: saline 114 % of control | dose: 0.19 mg/kg/injection, schedule: Q01DX009 (ip), vehicle: saline 100 % of control | dose: 0.39 mg/kg/injection, schedule: Q01DX009 (ip), vehicle: saline 107 % of control | dose: 0.78 mg/kg/injection, schedule: Q01DX009 (ip), vehicle: saline 103 % of control | dose: 1.56 mg/kg/injection, schedule: Q01DX009 (ip), vehicle: saline 114 % of control

CN1CN(c2ccccc2)C2(CCN(Cc3cc(=O)c4ccccc4o3)CC2)C1=O
inactive: [14] 102 % of control | [15] 101 % of control | [16] 98 % of control

CC1(C)C2CCC1C(CO)C2 (centres undefined)
inactive: [1] 94 % of control | [14] 96 % of control | [2] 104 % of control | [15] 107 % of control | [3] 100 % of control | [16] 102 % of control

COc1cccc(O)c1/C=C/[N+](=O)[O-]
inactive: dose: 50.0 mg/kg/injection, schedule: Q01DX009 (ip), vehicle: Klucel (hydroxypropylcellulose) (HPC) 104 % of control | [1] 102 % of control

Cc1noc(NC(=O)Nc2ccccc2C(F)(F)F)c1C
inactive: [1] 95 % of control and 103 % of control | [10] 92 % of control and 97 % of control | [2] 92 % of control and 118 % of control | [11] 101 % of control and 119 % of control | [3] 101 % of control | [12] 105 % of control and 116 % of control

c1nc2c([nH]1)CCCCC2
inactive: dose: 12.5 mg/kg/injection, schedule: Q01DX001 (ip), vehicle: saline with Tween-80 100 % of control | dose: 25.0 mg/kg/injection, schedule: Q01DX001 (ip), vehicle: saline with Tween-80 97 % of control | dose: 25.0 mg/kg/injection, schedule: Q01DX009 (ip), vehicle: other 104 % of control and 106 % of control | dose: 25.0 mg/kg/injection, schedule: Q04DX002 (ip), vehicle: other 99 % of control and 110 % of control | dose: 50.0 mg/kg/injection, schedule: Q01DX001 (ip), vehicle: saline with Tween-80 100 % of control | dose: 50.0 mg/kg/injection, schedule: Q01DX009 (ip), vehicle: other 101 % of control and 88 % of control | dose: 50.0 mg/kg/injection, schedule: Q04DX002 (ip), vehicle: other 105 % of control and 113 % of control | dose: 100.0 mg/kg/injection, schedule: Q04DX002 (ip), vehicle: other 100 % of control and 103 % of control

OCC1OC(n2c(N3CCCCC3)nc3ccccc32)C(O)C1O (centres undefined)
inactive: [20] 102 % of control | [21] 105 % of control | [22] 105 % of control
